Assays:
recombinant human KDM4A = biological target: T1, recombinant human KDM4A (Homo sapiens, UniProt O75164); assay: 14CO2 capture enzymatic assay (decarboxylation of [1-14C] αKG), KDM4A; format: biochemical; details: 10 μM [1-14C] αKG, 90 μM non-labeled αKG, 50 μM peptide substrate, 37° C., 1 hour, final 1% DMSO
T1 construct: made in house
T1 sequence (O75164 1-359 limits assumed): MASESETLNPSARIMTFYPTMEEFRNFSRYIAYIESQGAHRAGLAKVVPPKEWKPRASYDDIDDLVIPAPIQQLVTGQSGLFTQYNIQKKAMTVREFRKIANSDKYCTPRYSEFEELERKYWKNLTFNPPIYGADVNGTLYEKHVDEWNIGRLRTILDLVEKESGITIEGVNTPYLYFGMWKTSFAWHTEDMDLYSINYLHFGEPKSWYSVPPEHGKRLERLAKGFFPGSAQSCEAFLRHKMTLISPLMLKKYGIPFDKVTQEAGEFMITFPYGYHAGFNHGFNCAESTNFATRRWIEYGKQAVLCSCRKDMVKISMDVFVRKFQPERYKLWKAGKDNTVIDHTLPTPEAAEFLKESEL
Procedure: (§1) Enzymatic activity was determined based on the capture of ^14CO2 released by the decarboxylation of [1-^14C] αKG (Zhang et al., Anal. Biochem., 1998, vol. 271, pp. 137-142). [1-^14C]alphaketoglutarate (αKG) was from Perkin-Elmer, H3K4me3 and H3K9me3 peptides were from Mimotopes. All other reagents were from Sigma. Reaction mixtures included the following components: Fe(SO4), [1-^14C] αKG, non-labeled αKG, ascorbate, peptide-substrate (H3K4me3: H-ARTK(me3)QTARKSTGGKAPRKQLA-OH. H3K9me3: H-ARTKQTARK(me3)STGGKAPRKQLA-OH), NaCl, Tween-20 and catalase in 25 mM HEPES buffer, pH 7.4. The enzymatic reactions were initiated by addition of recombinant human KDM5B or KDM4A enzyme (truncated enzyme produced in house by method and using sequence disclosed in Ng et al, Nature 448:87-91, 2007). The reactions were performed in 96-well microtiter plates (20 μL total assay volume) (Greiner #650201). ^14CO2 was captured on a glass fiber filter paper (Cat. No. IH-201-A, Inotech Biosystems International) soaked with saturated Ba(OH)2 that was laid on top of the 96-well plate. A microtiter plate sealer film (Thermal Seal cat #T7961100) was applied to the filter paper. The plate and filter paper were sandwiched between two custom made aluminum plates (Advanced Component Manufacturing, Burlingame, CA) and transferred to a 37° C. oven and allowed to incubate for 1 hour. After incubation, the filter paper was dried in a 103° C. oven for 40-60 minutes. To determine percent turnover, aliquots of the reaction mixture were spotted onto the filter paper and the filter paper was dried again. The dry filter paper was exposed to a storage phosphor screen for 24-72 hours and the images recorded using a Typhoon FLA 7000 Imager (Amersham Biosciences, Piscataway, NJ). Integrated spot intensities corresponding to control reactions lacking the enzyme were subtracted from integration results for enzyme containing reactions and data were converted to enzyme dependent percent ^14CO2 release. All enzymatic reactions were run in duplicates.
(§2) For IC50 determination, a 3-fold dilution series of compound was prepared and added to the reaction mixture (final 1% DMSO, v/v) prior to enzyme addition. The final reagent concentrations were: 10 μM Fe(SO4), 10 μM [1-^14C] αKG, 90 μM non-labeled αKG, 2 mM ascorbate, 50 μM peptide substrate, 75 mM NaCl, 0.01% Tween-20 and ˜2 units/μL catalase. IC50s were determined by non-linear fitting using Grafit version 7.0.

recombinant human KDM5B = biological target: T2, recombinant human KDM5B (Homo sapiens, UniProt Q9UGL1); assay: 14CO2 capture enzymatic assay (decarboxylation of [1-14C] αKG), KDM5B; format: biochemical; details: 10 μM [1-14C] αKG, 90 μM non-labeled αKG, 50 μM peptide substrate, 37° C., 1 hour, final 1% DMSO
T2 sequence (Q9UGL1 374-755 limits assumed): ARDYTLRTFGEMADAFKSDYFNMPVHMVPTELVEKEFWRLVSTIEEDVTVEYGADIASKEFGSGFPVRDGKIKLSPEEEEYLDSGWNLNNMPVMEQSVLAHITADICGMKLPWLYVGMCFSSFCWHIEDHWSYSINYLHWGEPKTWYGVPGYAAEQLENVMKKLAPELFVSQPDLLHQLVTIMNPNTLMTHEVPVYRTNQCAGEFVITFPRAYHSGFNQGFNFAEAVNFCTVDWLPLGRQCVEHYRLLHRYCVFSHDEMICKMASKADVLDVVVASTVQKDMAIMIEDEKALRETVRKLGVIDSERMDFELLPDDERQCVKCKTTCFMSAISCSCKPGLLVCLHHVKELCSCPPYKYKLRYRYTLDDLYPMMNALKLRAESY
Procedure: as §1, §2

Work on `N#Cc1cc(Cc2c(Cl)cccc2C(F)(F)F)nc(C(=O)CCC(=O)O)c1O` [Example 59, 4-[6-(2-Chloro-6-trifluoromethyl-benzyl)-4-cyano-3-hydroxy-pyridin-2-yl]-4-oxo-butyric acid] yielded an IC50 (recombinant human KDM4A) greater than 40000 nM and an IC50 (recombinant human KDM5B) of 330 nM.
`N#Cc1cc(Cc2c(F)cccc2C(F)(F)F)nc(C(=O)CCC(=O)O)c1O` [Example 60, 4-[6-(2-Fluoro-6-trifluoromethyl-benzyl)-4-cyano-3-hydroxy-pyridin-2-yl]-4-oxo-butyric acid] showed an IC50 (recombinant human KDM4A) greater than 40000 nM and an IC50 (recombinant human KDM5B) of 330 nM.
Work on `COc1cccc(C(F)(F)F)c1Cc1cc(C#N)c(O)c(C(=O)CCC(=O)O)n1` [Example 61, 4-[4-Cyano-3-hydroxy-6-(2-methoxy-6-trifluoromethyl-benzyl)-pyridin-2-yl]-4-oxo-butyric acid] yielded an IC50 (recombinant human KDM4A) greater than 40000 nM and an IC50 (recombinant human KDM5B) of 570 nM.
`Cc1cccc(C(F)(F)F)c1Cc1cc(C#N)c(O)c(C(=O)CCC(=O)O)n1` [Example 62, 4-[4-Cyano-3-hydroxy-6-(2-methyl-6-trifluoromethyl-benzyl)-pyridin-2-yl]-4-oxo-butyric acid] was tested, and the IC50 (recombinant human KDM4A) was greater than 40000 nM and the IC50 (recombinant human KDM5B) was 470 nM.
With `N#Cc1cc(Cc2cc(Cl)ccc2Cl)nc(C(=O)CCC(=O)O)c1O` [Example 63, 4-[4-Cyano-6-(2,5-dichloro-benzyl)-3-hydroxy-pyridin-2-yl]-4-oxo-butyric acid] the IC50 (recombinant human KDM4A) was 36000 nM and the IC50 (recombinant human KDM5B) was 240 nM.
`N#Cc1cc(Cc2ccc(Cl)cc2Cl)nc(C(=O)CCC(=O)O)c1O` [Example 64, 4-[4-Cyano-6-(2,4-dichloro-benzyl)-3-hydroxy-pyridin-2-yl]-4-oxo-butyric acid] showed an IC50 (recombinant human KDM4A) greater than 40000 nM and an IC50 (recombinant human KDM5B) of 260 nM.
In the case of `N#Cc1cc(Cc2cccc(Cl)c2Cl)nc(C(=O)CCC(=O)O)c1O` [Example 65, 4-[4-Cyano-6-(2,3-dichloro-benzyl)-3-hydroxy-pyridin-2-yl]-4-oxo-butyric acid], the IC50 (recombinant human KDM4A) is reported as 14000 nM and the IC50 (recombinant human KDM5B) is reported as 180 nM.
For `N#Cc1cc(-c2ccc(OC(F)(F)F)cc2)nc(C(=O)CCC(=O)O)c1O` [Example 67, 4-[4-Cyano-3-hydroxy-6-(4-trifluoromethoxy-phenyl)-pyridin-2-yl]-4-oxo-butyric acid], the IC50 (recombinant human KDM4A) was greater than 40000 nM and the IC50 (recombinant human KDM5B) was 240 nM.
`N#Cc1cc(-c2cccc3ccccc23)nc(C(=O)CCC(=O)O)c1O` [Example 68, 4-(4-Cyano-3-hydroxy-6-naphthalen-1-yl-pyridin-2-yl)-4-oxo-butyric acid] was tested, and the IC50 (recombinant human KDM4A) was greater than 40000 nM and the IC50 (recombinant human KDM5B) was 280 nM.
`N#Cc1cc(-c2ccccc2F)nc(C(=O)CCC(=O)O)c1O` [Example 69, 4-[4-Cyano-6-(2-fluoro-phenyl)-3-hydroxy-pyridin-2-yl]-4-oxo-butyric acid] was tested, and the IC50 (recombinant human KDM4A) was greater than 40000 nM and the IC50 (recombinant human KDM5B) was 150 nM.
With `N#Cc1cc(-c2ccccc2Cl)nc(C(=O)CCC(=O)O)c1O` [Example 70, 4-[6-(2-Chloro-phenyl)-4-cyano-3-hydroxy-pyridin-2-yl]-4-oxo-butyric acid] the IC50 (recombinant human KDM4A) was greater than 40000 nM and the IC50 (recombinant human KDM5B) was 300 nM.
Work on `Cc1ccccc1-c1cc(C#N)c(O)c(C(=O)CCC(=O)O)n1` [Example 71, 4-(4-Cyano-3-hydroxy-6-o-tolyl-pyridin-2-yl)-4-oxo-butyric acid] yielded an IC50 (recombinant human KDM4A) greater than 40000 nM and an IC50 (recombinant human KDM5B) of 310 nM.
Molecule `Cc1cccc(-c2cc(C#N)c(O)c(C(=O)CCC(=O)O)n2)c1` [Example 72, 4-(4-Cyano-3-hydroxy-6-m-tolyl-pyridin-2-yl)-4-oxo-butyric acid] has an IC50 (recombinant human KDM4A) greater than 40000 nM and an IC50 (recombinant human KDM5B) of 100 nM.
Work on `Cc1ccc(-c2cc(C#N)c(O)c(C(=O)CCC(=O)O)n2)cc1` [Example 73, 4-(4-Cyano-3-hydroxy-6-p-tolyl-pyridin-2-yl)-4-oxo-butyric acid] yielded an IC50 (recombinant human KDM4A) greater than 40000 nM and an IC50 (recombinant human KDM5B) of 110 nM.
Molecule `N#Cc1cc(-c2cccc(-c3ccccc3)c2)nc(C(=O)CCC(=O)O)c1O` [Example 74, 4-(6-Biphenyl-3-yl-4-cyano-3-hydroxy-pyridin-2-yl)-4-oxo-butyric acid] has an IC50 (recombinant human KDM4A) greater than 40000 nM and an IC50 (recombinant human KDM5B) of 60 nM.
For `N#Cc1cc(-c2ccc(-c3ccccc3)cc2)nc(C(=O)CCC(=O)O)c1O` [Example 75, 4-(6-Biphenyl-4-yl-4-cyano-3-hydroxy-pyridin-2-yl)-4-oxo-butyric acid], the IC50 (recombinant human KDM4A) was 20000 nM and the IC50 (recombinant human KDM5B) was 90 nM.
Work on `N#Cc1cc(Oc2ccccc2)nc(C(=O)CCC(=O)O)c1O` [Example 76, 4-(4-Cyano-3-hydroxy-6-phenoxy-pyridin-2-yl)-4-oxo-butyric acid] yielded an IC50 (recombinant human KDM4A) greater than 40000 nM and an IC50 (recombinant human KDM5B) of 190 nM.
`N#Cc1cc(-c2ccc3ccccc3c2)nc(C(=O)CCC(=O)O)c1O` [Example 77, 4-(4-Cyano-3-hydroxy-6-naphthalen-2-yl-pyridin-2-yl)-4-oxo-butyric acid] showed an IC50 (recombinant human KDM4A) of 12000 nM and an IC50 (recombinant human KDM5B) of 40 nM.
With `N#Cc1cc(Sc2ccccc2)nc(C(=O)CCC(=O)O)c1O` [Example 78, 4-(4-Cyano-3-hydroxy-6-phenylsulfanyl-pyridin-2-yl)-4-oxo-butyric acid] the IC50 (recombinant human KDM4A) was greater than 40000 nM and the IC50 (recombinant human KDM5B) was 90 nM.
For `N#Cc1cc(Oc2ccc(F)cc2)nc(C(=O)CCC(=O)O)c1O` [Example 79, 4-[4-Cyano-6-(4-fluoro-phenoxy)-3-hydroxy-pyridin-2-yl]-4-oxo-butyric acid], the IC50 (recombinant human KDM4A) was greater than 40000 nM and the IC50 (recombinant human KDM5B) was 230 nM.
`Cc1c(F)cccc1-c1cc(C#N)c(O)c(C(=O)CCC(=O)O)n1` [Example 80, 4-[4-Cyano-6-(3-fluoro-2-methyl-phenyl)-3-hydroxy-pyridin-2-yl]-4-oxo-butyric acid] was tested, and the IC50 (recombinant human KDM4A) was greater than 40000 nM and the IC50 (recombinant human KDM5B) was 390 nM.
Work on `COc1ccc(-c2cc(C#N)c(O)c(C(=O)CCC(=O)O)n2)c(Cl)c1` [Example 81, 4-[6-(2-Chloro-4-methoxy-phenyl)-4-cyano-3-hydroxy-pyridin-2-yl]-4-oxo-butyric acid] yielded an IC50 (recombinant human KDM4A) greater than 40000 nM and an IC50 (recombinant human KDM5B) of 340 nM.
For `Cc1ccc(F)cc1-c1cc(C#N)c(O)c(C(=O)CCC(=O)O)n1` [Example 82, 4-[4-Cyano-6-(5-fluoro-2-methyl-phenyl)-3-hydroxy-pyridin-2-yl]-4-oxo-butyric acid], the IC50 (recombinant human KDM4A) was greater than 40000 nM and the IC50 (recombinant human KDM5B) was 350 nM.
Work on `N#Cc1cc(-c2ccc(F)cc2Cl)nc(C(=O)CCC(=O)O)c1O` [Example 83, 4-[6-(2-Chloro-4-fluoro-phenyl)-4-cyano-3-hydroxy-pyridin-2-yl]-4-oxo-butyric acid] yielded an IC50 (recombinant human KDM4A) greater than 40000 nM and an IC50 (recombinant human KDM5B) of 250 nM.
With `Cc1ccc(-c2cc(C#N)c(O)c(C(=O)CCC(=O)O)n2)c(Cl)c1` [Example 84, 4-[6-(2-Chloro-4-methyl-phenyl)-4-cyano-3-hydroxy-pyridin-2-yl]-4-oxo-butyric acid] the IC50 (recombinant human KDM4A) was greater than 40000 nM and the IC50 (recombinant human KDM5B) was 460 nM.
Molecule `CCc1ccccc1-c1cc(C#N)c(O)c(C(=O)CCC(=O)O)n1` [Example 85, 4-[4-Cyano-6-(2-ethyl-phenyl)-3-hydroxy-pyridin-2-yl]-4-oxo-butyric acid] has an IC50 (recombinant human KDM4A) greater than 40000 nM and an IC50 (recombinant human KDM5B) of 450 nM.
Work on `Cc1cc(F)ccc1-c1cc(C#N)c(O)c(C(=O)CCC(=O)O)n1` [Example 86, 4-[4-Cyano-6-(4-fluoro-2-methyl-phenyl)-3-hydroxy-pyridin-2-yl]-4-oxo-butyric acid] yielded an IC50 (recombinant human KDM4A) greater than 40000 nM and an IC50 (recombinant human KDM5B) of 450 nM.
With `N#Cc1cc(F)ccc1-c1cc(C#N)c(O)c(C(=O)CCC(=O)O)n1` [Example 87, 4-[4-Cyano-6-(2-cyano-4-fluoro-phenyl)-3-hydroxy-pyridin-2-yl]-4-oxo-butyric acid] the IC50 (recombinant human KDM4A) was greater than 40000 nM and the IC50 (recombinant human KDM5B) was 280 nM.

Reference: patent publication US20240002344A1, “COMPOUNDS, COMPOSITIONS AND METHODS FOR HISTONE LYSINE DEMETHYLASE INHIBITION” (FibroGen, Inc., priority 2020, published 2024)
